Experimental data reported in article PMC7369637, “Inhibition of Resistance-Refractory P. falciparum Kinase PKG Delivers Prophylactic, Blood Stage, and Transmission-Blocking Antiplasmodial Activity” (Cell Chemical Biology, 2020).
pIC50: −log10 of the molar value. Read-outs that look alike come from different tables or passages of the source.

What was measured:
[1] = target: T1, human protein extracts (Mixed: HEK-293/ K-562/ Placenta/ Hep G2) (Homo sapiens, UniProt P21127); test: Chemoproteomic profiling, MS/MS data for all quantified proteins (Table S1 E3); assay type: binding
T1 construct: endogenous in cells; host or cells: mixture of HEK-293, K-562, Hep G2 and placenta
Experimental: Human extracts were prepared as described ([Bantscheff et al., 2011]). Briefly, frozen cell pellets were homogenized in lysis buffer (50 mM Tris-HCl, 0.8% Igepal-CA630, 5% glycerol, 150 mM NaCl, 1.5 mM MgCl2, 25 mM sodium fluoride, 1 mM sodium vanadate, 1 mM DTT, pH 7.5). One cOmplete EDTA-free protease inhibitor tablet (Roche) was added per 25 ml. Samples were dispersed using a Dounce homogenizer, rotated for 30 min at 4°C, and centrifuged at 20,000g for 10 min at 4°C. Supernatants were then recentrifuged at 145,000g for 1 h at 4°C. Protein concentrations were determined using a Bradford assay (BioRad). Aliquots were snap frozen in liquid nitrogen and stored at −80°C.
Kinobeads were prepared by immobilizing Bis-(III) indolyl-maleimide, purvalanol B, staurosporine and CZC8004, and the analogs of PD173955, sunitinib and vandetanib on NHS-activated Sepharose 4 beads (Amersham) ([Bantscheff et al., 2007]). […] The chemoproteomic affinity-capturing experiments were performed as previously described ([Bantscheff et al., 2011]). Briefly, beads were washed and equilibrated in lysis buffer (50 mM Tris-HCl, pH 7.4, 0.4 % Igepal-CA630, 1.5 mM MgCl2, 5 % Glycerol, 150 mM NaCl, 25 mM NaF, 1 mM Na3VO4, 1 mM DTT, and one cOmplete EDTA-free protease inhibitor tablet (Roche) per 25 mL). […] 10 samples were measured in parallel (TMT 10-plex ([Werner et al., 2014])) to generate values for the affinity of the beads to the bound proteins (“depletion” values, 4 samples) and to generate IC50 values (6 samples) in a single experiment. Apparent dissociation constants were determined after accounting for protein depletion by the beads ([Bantscheff et al., 2011]). […]
Proteins were digested according to a modified single pot solid-phase sample preparation (SP3) protocol ([Hughes et al., 2014]). Peptides were labeled with isobaric mass tags (Thermo Fisher Scientific, Waltham, MA) using 10-plex TMT reagents, enabling relative quantification of 10 conditions in a single experiment ([Werner et al., 2014]). […]

[2] = tested on: P. berghei ANKA liver stages; test: Liver stage susceptibility, luciferase-based assay (PbLuc sporozoites in HepG2); assay type: cell-based; settings: Plasmodium berghei
Experimental: P. berghei ANKA infections were maintained in BALB/c female mice (The Jackson Laboratory) infected via intraperitoneal injection of 2×10^7 blood stage parasites. Infected mice were provided water ad libitum and housed in standard cages in an animal facility room maintained at 22°C and 50-70% relative humidity. Anopheles stephensi mosquitoes were housed in an insectary maintained at 27°C, 80% humidity and a 12:12 light:dark schedule. […] 24 h before infection, 384-well plates (Greiner Bio) were seeded with 1x10^4 HepG2-A16-CD81^EGFP cells in 30 μL of assay medium (DMEM without Phenol Red (Life Technologies, CA), 5% FBS and 5x Pen-Strep Glutamine (Life Technologies, CA)). Luciferase-expressing Pb (PbLuc) sporozoites were freshly obtained by dissecting salivary glands of infected Anopheles stephensi mosquitoes and 5x10^3 sporozoites in 30 μL were added to each well. Plates were centrifuged for 5 min at 330g and incubated for 2 h at 37°C and 5% CO2. Unbound sporozoites were then removed by centrifugation and washing and 30 μL of fresh medium was added. […] Luminescence was measured using an Envision Multilabel Reader (PerkinElmer) to assess parasite growth as a function of compound concentrations.

T1 sequence (P21127 whole entry): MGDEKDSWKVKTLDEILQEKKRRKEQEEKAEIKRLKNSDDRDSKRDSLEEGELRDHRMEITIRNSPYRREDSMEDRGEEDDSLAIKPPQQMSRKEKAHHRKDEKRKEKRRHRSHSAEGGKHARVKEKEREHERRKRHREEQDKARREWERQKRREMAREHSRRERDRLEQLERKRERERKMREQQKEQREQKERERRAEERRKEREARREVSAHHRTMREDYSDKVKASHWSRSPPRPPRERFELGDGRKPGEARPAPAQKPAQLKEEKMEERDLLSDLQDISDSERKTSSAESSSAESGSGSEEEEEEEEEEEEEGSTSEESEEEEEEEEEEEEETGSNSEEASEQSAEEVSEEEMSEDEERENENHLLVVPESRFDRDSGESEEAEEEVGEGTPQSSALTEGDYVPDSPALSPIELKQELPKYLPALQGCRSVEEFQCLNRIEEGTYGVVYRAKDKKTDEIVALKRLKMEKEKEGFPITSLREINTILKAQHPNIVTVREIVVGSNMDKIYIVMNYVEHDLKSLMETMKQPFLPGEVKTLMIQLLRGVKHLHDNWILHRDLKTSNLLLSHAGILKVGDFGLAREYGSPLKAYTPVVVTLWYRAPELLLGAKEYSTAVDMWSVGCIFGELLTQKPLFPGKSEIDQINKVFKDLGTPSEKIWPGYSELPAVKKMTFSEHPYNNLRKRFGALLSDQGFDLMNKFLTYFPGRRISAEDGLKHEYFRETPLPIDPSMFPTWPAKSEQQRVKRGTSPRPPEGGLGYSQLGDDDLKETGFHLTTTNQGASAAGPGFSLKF

SMILES: CC(C)(CN)c1nc(-c2ccc(Cl)c(O)c2)c(-c2ccncc2)[nH]1 [MMV030084]
- pIC50 [1]: ≤ 4.52
- pIC50 ([2]; HepG2, compound added 2 h after infection, read-out: IC50, liver stage, post-invasion exposure): < 5.00
- pIC50 ([2]; luciferase-expressing Pb parasites, host HepG2 liver cells, pre-invasion exposure, read-out: IC50, liver stage): 6.70
